Among the test systems are Candida parapsilosis; Candida albicans 01U; Candida albicans 38U; Trichophyton rubrum.
Assay in all cases: ≥ marks a high value that may be exact or a test limit, other limits are often not marked, values filed in µg/mL are converted to µM
The subject of assay [1] is Bacillus subtilis ATCC 6051.
For assay [2], the system named is Escherichia coli NEB5alpha.
The test system of assay [3] is Escherichia coli ATCC 25922.
Assay [4] has as its system Erwinia amylovora PMV 6076.
In assay [5] the test system is Xanthomonas campestris pv. Vesicatoria 2133-2.
Assay [6] has as its system Pseudomonas syringae pv. syringae EPS 94.
Assay [7] concerns Staphylococcus aureus ATCC 25923.
In assay [8] the test system is Pseudomonas aeruginosa ATCC 27853.
The test system of assay [9] is Klebsiella pneumoniae ATCC 13883.
Assay [10] concerns Listeria monocytogenes ATCC 35152.
The test system of assay [11] is Bacillus subtilis ATCC 23858.
Assay [12] concerns Staphylococcus aureus ATCC 33591.
Assay [13] relates to Listeria monocytogenes ATCC 7644.
The subject of assay [14] is Bacillus cereus ATCC 14579.
The test system of assay [15] is Staphylococcus aureus 68 HER 1049.
Assay [16] concerns Escherichia coli K12 MG1655.
The subject of assay [17] is Trichophyton mentagrophytes.
Assay [18] concerns Cryptococcus neoformans L26.
The test system of assay [19] is Cryptococcus neoformans L30.
For assay [20], the system named is Staphylococcus aureus ATCC 29313.
In assay [21] the test system is Xanthomonas axonopodis pv. glycines ISBF 327.
Assay [22] relates to Pseudomonas aeruginosa PAO1.
The subject of assay [23] is Pseudomonas aeruginosa Pa4-SA2.
Assay [24] concerns Klebsiella pneumoniae ATCC 700603.
The subject of assay [25] is Pseudomonas aeruginosa Pa1-SA2.
Assay [26] deals with Salmonella enterica subsp. enterica serovar Typhimurium ATCC 14028.
Assay [27] has as its system Pseudomonas aeruginosa PA006.

The structures appear in SMILES notation. Converted amounts (≈) assume the structure as drawn.

Take `CC[C@H](C)[C@H](NC(=O)[C@@H]1CCCN1C(=O)[C@H](Cc1cnc[nH]1)NC(=O)[C@H](CCCCN)NC(=O)[C@@H]1CCCN1C(=O)[C@@H](N)CCCN=C(N)N)C(=O)N[C@@H](CCCCN)C(=O)N[C@@H](Cc1cnc[nH]1)C(=O)N[C@@H](CCC(N)=O)C(=O)NCC(=O)N[C@@H](CC(C)C)C(=O)N1CCC[C@H]1C(=O)N[C@@H](CCC(N)=O)C(=O)N[C@@H](CCC(=O)O)C(=O)N[C@H](C(=O)N[C@@H](CC(C)C)C(=O)N[C@@H](CC(N)=O)C(=O)N[C@@H](CCC(=O)O)C(=O)N[C@@H](CC(N)=O)C(=O)N[C@@H](CC(C)C)C(=O)N[C@@H](CC(C)C)C(=O)N[C@@H](CCCN=C(N)N)C(=O)N[C@@H](Cc1ccccc1)C(=O)N[C@@H](Cc1ccccc1)C(=O)O)C(C)C` [RPKHPIKHQGLPQEVLNENLLRFF]: the MIC in assay [1] is 23.6 µM (≈ 68.8 µg/mL); in assay [2], no less than 47.2 µM; in assay [3] it was 189 µM (≈ 550 µg/mL).
Regarding `CC[C@H](C)[C@H](NC(=O)[C@H](CCCCN)NC(=O)[C@H](CCCCN)NC(=O)[C@H](Cc1ccccc1)NC(=O)[C@H](CC(C)C)NC(=O)[C@H](CCCCN)NC(=O)[C@H](CCCCN)NC(=O)[C@H](C)NC(=O)[C@@H]1CCCN1C(=O)CNC(=O)[C@H](C)NC(=O)[C@H](CC(C)C)NC(=O)[C@H](Cc1ccc(O)cc1)NC(=O)[C@H](CCCCN)NC(=O)[C@H](CC(C)C)NC(=O)[C@@H](NC(=O)[C@H](CCCCN)NC(=O)[C@H](CCCCN)NC(=O)[C@H](Cc1ccccc1)NC(=O)[C@H](CC(C)C)NC(=O)[C@H](CCCCN)NC(=O)[C@H](CCCCN)NC(=O)[C@@H](N)CO)[C@@H](C)CC)C(=O)N[C@@H](CC(C)C)C(=O)N[C@@H](CCCCN)C(=O)N[C@@H](Cc1ccc(O)cc1)C(=O)N[C@@H](CC(C)C)C(=O)O` [SKKLFKKILKYLAGPAKKLFKKILKYL], the minimum inhibitory concentration (MIC) in assay [4] came to 14.1 µM (≈ 45.4 µg/mL); in assay [5], 14.1 µM (≈ 45.4 µg/mL); in assay [6], 8.66 µM (≈ 27.8 µg/mL).
For the compound `CSCC[C@H](NC(=O)[C@H](CCCCN)NC(=O)[C@H](CCCCN)NC(=O)[C@H](CC(N)=O)NC(=O)[C@H](CCCN=C(N)N)NC(=O)[C@H](CS)NC(=O)[C@H](CCCCN)NC(=O)[C@@H](N)CCCCN)C(=O)N[C@@H](CCC(=O)O)C(=O)N[C@H](C(=O)N[C@@H](CO)C(=O)N[C@@H](CCCN=C(N)N)C(N)=O)C(C)C` [KKCRNKKMEVSR], the MIC in assay [7] was determined as 16.6 µM (≈ 25 µg/mL); in [8], 39.8 µM (≈ 60 µg/mL); in [3] it was 26.5 µM (≈ 40 µg/mL); in [9], 19.9 µM (≈ 30 µg/mL); in assay [10] it was 26.5 µM (≈ 40 µg/mL).
As for `CC[C@H](C)[C@H](NC(=O)[C@H](CC(C)C)NC(=O)[C@@H]1CCCN1C(=O)[C@H](CC(C)C)NC(=O)[C@@H](N)Cc1ccccc1)C(=O)N[C@@H](CC(C)C)C(=O)N1CCC[C@H]1C(=O)N[C@@H](CO)C(=O)N[C@H](C(=O)N[C@H](C(=O)N[C@H](C(=O)N[C@@H](C)C(=O)N[C@@H](CC(C)C)C(=O)N[C@@H](CO)C(=O)N[C@@H](CO)C(=O)N[C@@H](Cc1ccccc1)C(=O)N[C@@H](CC(C)C)C(=O)N[C@@H](CCCCN)C(=O)N[C@@H](CCC(N)=O)C(=O)NCC(=O)O)[C@@H](C)O)C(C)C)[C@@H](C)CC` [FLPLILPSIVTALSSFLKQG], the MIC in [11] was 23.3 µM (≈ 50 µg/mL); in [12], 11.7 µM (≈ 25.1 µg/mL); in assay [13], no less than 46.6 µM; in assay [14], 23.3 µM (≈ 50 µg/mL).
As for `CC[C@H](C)[C@H](NC(=O)[C@H](CCCN=C(N)N)NC(=O)[C@H](CCCCN)NC(=O)[C@H](Cc1c[nH]c2ccccc12)NC(=O)[C@H](CCCN=C(N)N)NC(=O)[C@H](CCCCN)NC(=O)[C@H](Cc1c[nH]c2ccccc12)NC(=O)[C@@H](N)Cc1c[nH]c2ccccc12)C(=O)N[C@@H](CCCN=C(N)N)C(=O)N[C@@H](CCCN=C(N)N)C(=O)N[C@H](C(=O)N[C@@H](Cc1ccccc1)C(=O)N[C@@H](CCSC)C(=O)N[C@@H](CCSC)C(=O)N[C@H](C(=O)O)C(C)C)[C@@H](C)CC` [WWKRWKRIRRIFMMV], the MIC in assay [15] amounted to 3.65 µM (≈ 8 µg/mL); in assay [16], 1.82 µM (≈ 4 µg/mL).
As to `CC[C@H](C)[C@H](NC(=O)[C@H](CC(C)C)NC(=O)[C@H](CCC(=O)O)NC(=O)[C@H](CO)NC(=O)[C@H](CCCN=C(N)N)NC(=O)[C@@H](N)CO)C(=O)N[C@H](C(=O)N[C@@H](Cc1cnc[nH]1)C(=O)N[C@@H](CCC(N)=O)C(=O)N[C@@H](CCCN=C(N)N)C(=O)N[C@@H](CCCN=C(N)N)C(=O)N[C@@H](CS)C(N)=O)C(C)C` [SRSELIVHQRRC], the MIC in assay [17] was no less than 173 µM; in assay [18], no less than 173 µM; against Candida parapsilosis it was no less than 173 µM; against Candida albicans 01U, no less than 86.3 µM; against Candida albicans 38U, no less than 43.1 µM; against Trichophyton rubrum, no less than 86.3 µM. Also, the MIC in [19] is no less than 173 µM.
As to `CC[C@H](C)[C@H](NC(=O)[C@@H](NC(=O)[C@H](CCCCN)NC(=O)[C@H](CCCCN)NC(=O)[C@H](CC(C)C)NC(=O)[C@@H](NC(=O)[C@H](CC(N)=O)NC(=O)[C@H](CC(C)C)NC(=O)CN)[C@@H](C)O)C(C)C)C(=O)N[C@@H](CCC(N)=O)C(=O)NCC(=O)N[C@@H](CC(C)C)C(=O)N[C@@H](Cc1cnc[nH]1)C(=O)N[C@@H](CCC(=O)O)C(=O)N[C@H](C(=O)N[C@H](C(=O)N[C@@H](CCCCN)C(=O)N[C@@H](CC(C)C)C(=O)N[C@H](C(=O)N[C@@H](CC(N)=O)C(=O)N[C@@H](CC(N)=O)C(=O)N[C@@H](Cc1cnc[nH]1)C(=O)N[C@@H](C)C(N)=O)C(C)C)[C@@H](C)CC)C(C)C` [GLNTLKKVIQGLHEVIKLVNNHA], the MIC in [20] came out at 6 µM (≈ 15.2 µg/mL); in assay [21] it was 2 µM (≈ 5.08 µg/mL); in assay [8] it was 50 µM (≈ 127 µg/mL); in [3] it was 6 µM (≈ 15.2 µg/mL).
Turning to `CC[C@H](C)[C@H](NC(=O)[C@H](CCCCN)NC(=O)CNC(=O)[C@@H](NC(=O)[C@H](C)NC(=O)[C@H](Cc1cnc[nH]1)NC(=O)[C@H](C)NC(=O)[C@@H](NC(=O)[C@H](CC(C)C)NC(=O)[C@H](CCC(N)=O)NC(=O)[C@H](CCCCN)NC(=O)CNC(=O)[C@H](C)NC(=O)[C@H](CC(=O)O)NC(=O)[C@H](CCCCN)NC(=O)[C@@H](NC(=O)[C@@H](NC(=O)[C@H](CC(=O)O)NC(=O)[C@H](Cc1ccccc1)NC(=O)[C@@H](NC(=O)CN)C(C)C)[C@@H](C)CC)[C@@H](C)CC)C(C)C)[C@@H](C)O)C(=O)N[C@@H](C)C(=O)N[C@@H](CCC(=O)O)C(=O)N[C@@H](CCCCN)C(=O)N[C@H](C(N)=O)C(C)C` [GVFDIIKDAGKQLVAHATGKIAEKV], the minimal inhibitory concentration (MIC) in assay [22] was 196 µM (≈ 512 µg/mL); in [20], no less than 307 µM; in assay [23] it was no less than 49.1 µM; in [24] it was greater than 307 µM; in assay [8], 392 µM (≈ 1020 µg/mL); in assay [3], greater than 307 µM. Also, the results for the minimum inhibitory concentration (MIC) in assay [25], in [26] and in assay [27] were no less than 98.1 µM, greater than 307 µM and 6.13 µM (≈ 16 µg/mL), respectively.

A word on the MIC: it is the least concentration at which growth counts as inhibited.
